Assay [1] has as its target T1, P-Selectin (Homo sapiens, UniProt P16109).
T1 construct: endogenous in cells
T1 sequence (P16109 42-830): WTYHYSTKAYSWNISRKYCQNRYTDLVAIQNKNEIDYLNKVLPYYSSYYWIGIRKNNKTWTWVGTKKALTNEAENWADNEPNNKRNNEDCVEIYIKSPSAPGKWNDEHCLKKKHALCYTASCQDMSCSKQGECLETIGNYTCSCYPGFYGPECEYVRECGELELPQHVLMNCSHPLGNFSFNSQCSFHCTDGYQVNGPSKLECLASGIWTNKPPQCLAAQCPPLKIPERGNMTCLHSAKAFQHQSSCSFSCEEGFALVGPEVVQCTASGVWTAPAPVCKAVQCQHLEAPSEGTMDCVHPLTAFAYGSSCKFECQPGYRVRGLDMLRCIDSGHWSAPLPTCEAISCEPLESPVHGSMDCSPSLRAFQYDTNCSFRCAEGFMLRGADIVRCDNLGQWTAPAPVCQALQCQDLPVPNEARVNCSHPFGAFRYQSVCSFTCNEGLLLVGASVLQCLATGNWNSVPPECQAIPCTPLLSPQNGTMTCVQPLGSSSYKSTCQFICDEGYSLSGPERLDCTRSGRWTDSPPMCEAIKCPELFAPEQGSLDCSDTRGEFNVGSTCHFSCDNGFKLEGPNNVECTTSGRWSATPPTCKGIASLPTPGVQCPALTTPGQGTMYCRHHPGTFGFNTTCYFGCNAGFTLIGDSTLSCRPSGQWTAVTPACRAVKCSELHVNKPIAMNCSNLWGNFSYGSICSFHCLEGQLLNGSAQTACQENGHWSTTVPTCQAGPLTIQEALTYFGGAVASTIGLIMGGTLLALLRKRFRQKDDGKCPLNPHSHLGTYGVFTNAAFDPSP
The assay can be described thus: Glycolipid liposome inhibition of HL-60 cell adhesion to activated platelets. Format: cell-based. The note with it: liposomes, FIG. 7. The protocol: The assays generally followed the protocol described in Larsen et al., Cell 63: 467-474 (1990), which is incorporated herein by reference.
Glycosphingolipids and liposomes were prepared as described in Example IV. The platelets were prepared as described in Example V, except that blocking of Fc receptors was not performed. HL60 cells were prepared as described above.
1. 20 μl of activated platelet preparation was placed in each of 28 1.5 ml microfuge tubes (14 duplicate samples).
2. 20 μl of the diluted liposomes at […], 5 μg or 2 μg, or 20 μl of the control buffers, were added to the appropriate tube of each duplicate.
3. The platelets were incubated with the liposome preparations for 20 min. at room temp.
4. Neutrophils or HL-60 cells at 2×10^6 cells/ml were each added to one set of liposome-treated platelets. 20 μl of cell suspension were added to each tube.
5. The tubes were mixed and allowed to stand at room temperature for 20 min. Then they were applied to a hemacytometer and the cells were scored as positive (2 or more platelets attached/cell) or negative (less than 2 platelets attached/cell).

For assay [2], the target named is T2, E-Selectin (Homo sapiens, UniProt P16581).
T2 construct: adhesion of HL-60 cells
T2 sequence (P16581 22-610): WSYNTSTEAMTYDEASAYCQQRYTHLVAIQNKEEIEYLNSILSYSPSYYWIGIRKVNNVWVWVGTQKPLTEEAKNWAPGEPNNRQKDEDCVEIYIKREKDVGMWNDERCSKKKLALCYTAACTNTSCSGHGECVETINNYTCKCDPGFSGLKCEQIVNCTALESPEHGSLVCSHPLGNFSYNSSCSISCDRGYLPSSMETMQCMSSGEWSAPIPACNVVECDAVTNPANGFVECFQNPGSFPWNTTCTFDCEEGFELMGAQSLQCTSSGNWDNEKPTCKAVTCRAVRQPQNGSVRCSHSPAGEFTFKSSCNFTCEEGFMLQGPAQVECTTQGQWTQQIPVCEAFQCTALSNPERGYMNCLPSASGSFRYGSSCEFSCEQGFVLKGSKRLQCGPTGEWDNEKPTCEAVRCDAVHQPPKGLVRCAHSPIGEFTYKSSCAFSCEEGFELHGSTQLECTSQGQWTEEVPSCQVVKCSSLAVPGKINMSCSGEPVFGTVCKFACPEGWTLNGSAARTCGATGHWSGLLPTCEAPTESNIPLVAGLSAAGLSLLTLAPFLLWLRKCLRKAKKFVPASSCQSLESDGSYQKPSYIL
The assay is described as follows: Glycolipid liposome inhibition of HL-60 cell adhesion to IL-1β activated endothelial cells. The assay is classed as cell-based. The following applies: liposomes; for inhibition of adhesion of HL-60 cells to activated endothelial cells: 4° C. (FIG. 5); for reduction of HL-60 cell adhesion to activated endothelial cells: 37° C. An excerpt:
This Example describes the preparation of liposomes which contain various biosynthetically produced glycosphingolipids on which the terminal carbohydrate units are either SLe^x, Le^x, or similar but not identical compounds. The ability of the liposomes which contain SLe^x or SLe^x mimetics to block the binding of SLe^x -expressing HL-60 cells and LEC11 cells to endothelial cells that have been stimulated to express E-Selectin by treatment with IL-1β is shown.
Materials: The glycosphingolipids used in this experiment are shown in Table I; they were obtained from the Biomembrane Institute, Seattle, Wash., and were either purified or biosynthetically produced and characterized by NMR and mass spectrometry, as generally described in Hakomori, S. I., et al., J. Biol. Chem., 259:4672 (1984), and Fukushi Y., et al., J. Biol. Chem. 259:10511 (1984), incorporated by reference herein. […] Nonsialylated diLex was similarly synthesized using nLc6 as substrate and the cell line NCI H-69. See Holmes et al., J. Biol. Chem. 260:7619 (1985), incorporated by reference herein. SPG and SH were purified from bovine red blood cells, and nLc6 was produced by chemical removal of the terminal sialosyl residue from SH.
Liposomes containing the glycosphingolipids were formed as follows: 100 μg of glycolipid was added to 300 μg phosphatidylcholine (Sigma, egg yolk) and 500 μg cholesterol (Sigma) in chloroform-methanol (2:1) and the whole solution evaporated to dryness by N2 in 15 ml screwcap tubes.
Passage 3 HUVEC, which had been grown to confluence on a gelatin coated 48 well assay plate (Costar) were used as the source of endothelial cells. The plates were prepared as previously described. Two sets of triplicate wells were left unstimulated as controls. Fourteen sets of triplicates were stimulated with IL-1β at 30 μg/ml in a 0.5 ml volume of EGM-UV. Cells were stimulated for exactly 4 hrs. HL-60 cells and LEC11 cells were cultured as described above.
1. One 48 well Costar cluster dish containing HUVEC grown to confluence on gelatin was removed from the incubator and the medium in each well was removed with a pasteur pipette and replaced either with 0.5 ml fresh EGM-UV medium or with the same medium containing 30 μg/ml IL-1β,and the plate then returned to the incubator for 4 hrs.
2. HL-60 cells and LEC11 cells were harvested and washed in CRPMI. A viable cell count was made using trypan blue. 6×10^6 cells of each cell type were radiolabeled as follows: 3×10^6 cells of each type were placed in each of two 10 ml test tubes and 300 μl of ^51 Cr (450 μCi) (New England Nuclear) was added to each tube. The tubes were allowed to incubate 1 hr. at 37° C. with gentle agitation.
3. Radiolabeled HL-60 and LEC11 cells were washed 3× in CRPMI and pooled into one tube. […]

The test system of assay [3] is CVF-induced acute lung injury. The assay can be described thus: Cobra venom factor (CVF)-induced acute lung injury in the rat. The assay is classed as in vivo. The note with it: 200 μg prior to CVF (FIG. 16: 0.6 mg/Kg). The protocol:
Groups of rats were pretreated with either vehicle, SLN-OH (0.6 mg/Kg), or with SLX-OH (0.6 mg/Kg) 5 minutes prior to administration of either CVF or PBS. Each bar represents the mean of 6 animals and vertical lines represent the standard error of the mean.
Groups of rats were pretreated with either vehicle or Z at the indicated doses 5 minutes prior to administration of CVF or PBS. Each point represents the mean of 6 animals and vertical lines represent the standard error of the mean.
The intravenous injection of CVF produces intravascular complement activation which results in lung injury, defined as an increase in neutrophil accumulation within the lung, an increase in pulmonary vascular permeability and in lung hemorrhage. It is likely that intravascular complement activation results in the generation of a wide range of inflammatory mediators. Of particular relevance to the studies described here is generation of the split fifth complement component, C5a, which can stimulate the release of histamine from circulating basophils and tissue mast cells. […] The expression of selectins, including P-selectin, is a necessary first step in the process of leukocyte adherence to vascular endothelium.
Animals were dosed with different oligosaccharide preparations or phosphate buffered saline (PBS) five minutes before administration of cobra venom factor (20 units/Kg, i.v.). Included in this material was an aliquot of ^125 I-bovine serum albumin (0.5 μCi) and ^51 Cr labelled autologous red blood cells (0.5 μCi) for measuring plasma extravasation and hemorrhage respectively. Thirty minutes after administration of the cobra venom factor the animals were anesthetized with ketamine hydrochloride (10 mg/Kg) and exsanguinated via the posterior vena cava. The lung vasculature was then perfused through the right cardiac ventricle with 10 mL of PBS. The lungs were removed and the amount of radioactivity remaining within the tissue assessed with a gamma scintillation counter. Increased pulmonary vascular permeability was measured as the ratio of ^125 I in lung tissue compared with the amount present in 1 mL of venous blood obtained at the time of death. Lung hemorrhage was measured as the ratio of ^51 Cr in lung tissue compared with the amount present in 1 mL of venous blood obtained at the time of death. Neutrophil accumulation in lungs was determined by measuring the myeloperoxidase activity of lungs homogenized in PBS. Myeloperoxidase activity in lung supernatants was assayed by measuring the change in absorbance at 460 nm resulting from decomposition of H2 O2 in the presence of o-dianisidine

For assay [4], the system named is IgA immune complex induced lung injury. The assay is described as follows: IgA immune complex-induced acute lung injury in the rat. The assay is classed as in vivo, rat (male Long-Evans). The procedure:
Groups of rats were dosed with either vehicle, SLN-OH (100 μpg), or with SLX-OH (100 μg) […] post induction of inflammation. Each bar represents the mean of 6 animals and vertical lines represent the standard error of the mean.
Adult male (300 g) specific pathogen-free Long-Evans rats purchased from Charles River Labs (Portage, Mich.) were employed in the studies. For the induction of IgG immune complex pulmonary inflammation rabbit polyclonal IgG rich in antibody to bovine serum albumin (antiBSA) was purchased from Organon Teknika (Westchester, PA). Intraperitoneal ketamine (10 mg/Kg) was administered for anesthesia. 2.5 mg of anti-BSA in a volume of 300 μl was instilled intratracheally via a small intratracheal catheter during inspiration after surgical exposure of the trachea. Intravenous injection of 10 mg BSA was injected intravenously to generate immune complex formation. Trace amounts of ^125 I-BSA and ^51 Cr-RBC were administered with the BSA as markers for plasma and RBC extravasation respectively. Rats were sacrificed 4 h later and lung injury was assessed by the ratio of radiolabelled albumin in the lungs relative to the circulation (permeability), the ratio of RBC in the lungs relative to the circulation (hemorrhage) and the amount of myeloperoxidase activity in a lung homogenate (neutrophil accumulation). For induction of IgA immune complex induced lung injury 1.2 mg of a murine myeloma IgA protein specific for dinitrophenol (DNP) was instilled intratracheally and 3.3 mg DNP-bovine serum albumin injected intravenously. Lung injury was assessed in the same manner described for IgG-induced lung injury.
SLX-OH, Z, the non-fucosylated control oligosaccharide SLN, or an equivalent volume of PBS were injected intravenously in three equally divided doses at 2, 2.5, and 3 h following deposition of immune complexes. This schedule for injections was selected since it coincides with the time during which rapid expression of E-selectin occurs in the pulmonary vasculature.

Assay [5] concerns IgG immune complex-induced acute lung injury. The assay is described as follows: IgG immune complex-induced acute lung injury in the rat. Format: in vivo, rat (male Long-Evans). The following applies: conclusion in words.

The values that follow come from US5753631A, “Intercellular adhesion mediators” (Cytel Corporation, priority 1995, dated 1998).

Consider “III^3 V^3 Fuc2 nLc6 [di-Le^x, reference compound]”, for which, in assay [1], the “inhibition of adhesion of HL-60 cells to activated platelets” value is recorded as “minimal inhibition”. Also, in assay [2], the “inhibition of adhesion of HL-60 cells to activated endothelial cells” value was “minimal inhibition” and the “reduction of HL-60 cell adhesion to activated endothelial cells” value is 40%.
For `CC(=O)N[C@H]1[C@H]([C@H](O)[C@H](O)CO)O[C@@](O[C@H]2[C@@H](O)[C@@H](CO)O[C@@H](O[C@H]3[C@H](O[C@@H]4O[C@@H](C)[C@@H](O)[C@@H](O)[C@@H]4O)[C@@H](NC(C)=O)C(O)O[C@@H]3CO)[C@@H]2O)(C(=O)O)C[C@@H]1O` (stereo partly drawn) [SLX-OH, NeuAcα2,3Gal,β1 4(Fucα1,3)GlcNAc-OH], the “reduction of permeability value” in assay [3] (P<0.001) is 43%. For the same compound, the reduction of hemorrhage in assay [3] (P<0.004) is 41%. Besides, in assay [3] (P<0.006), the “reduction of MPO content” value was 35%. Further, in assay [4] (FIG. 20, 100 μg), the “protection assessed by vascular permeability and hemorrhage” value is “did not afford any protection from IgA immune complex induced lung injury”. Besides, in assay [4] (conclusion in words), the “effect on IgA immune complex-induced neutrophil accumulation and pathological sequelae” value is given as “not IgA”. Also, in assay [5], the “effect on IgG immune complex-induced neutrophil accumulation / lung injury” value is listed as “blocked IgG”.
On to “III^3 V^3 Fuc2 VI^3 NeuAcnLc6 [S-diLe^x]”, for which the “inhibition of adhesion of HL-60 cells to activated platelets” value in assay [1] is listed as “dramatically inhibited”. In assay [2], the “inhibition of adhesion of HL-60 cells to activated endothelial cells” value is reported as “dramatically inhibited” and the “reduction of HL-60 cell adhesion to activated endothelial cells” value is 70%.
